What was measured:
[1] = target: human ERK-2 (Mitogen Activated Kinase 1) (Homo sapiens (Human), UniProt P28482); experiment: ERK-2 Enzymatic Assay; type: biochemical; settings: 5 nM ERK-2, 25 μM ATP, Omnia peptide S/T17; read-out: ERK Inhibition IC50
Method in brief: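 Recombinant N-terminal 6-His human ERK-2 (aa 8-360, E. coli) with fluorescent Omnia peptide S/T17 substrate, ambient temperature, read kinetically every 50 s for ~30 min (Ex 340/Em 495 nm). Linear rates converted to percent of control; IC50 from four-parameter fit.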

HCT116 cells = experiment: Cell Proliferation/Viability Assay (Cell Titer-Blue, 72 h); type: cell-based; settings: Homo sapiens, HCT-116, 3-day (72-hour) incubation
Description: The cytotoxic or cytostatic activity of formula I exemplary compounds was measured by: establishing a proliferating mammalian tumor cell line in a cell culture medium, adding a formula I compound, culturing the cells for a period from about 6 h to about 5 d; and measuring cell viability (Example 78). Cell-based in vitro assays were used to measure viability, i.e. proliferation (IC50), cytotoxicity (EC50).
Viable cells after a 3-day (72-hour) incubation with ERK compounds were quantified using the Cell Titer-Blue Cell Viability Assay from Promega.
Materials and Methods: HCT116 cells were plated in 96 well micro-plates at a density of 1,000 cells/well. The cells were allowed to attach to micro-plate overnight at 37° C./5% CO2. After overnight attachment, diluted compounds were then added to the cells at a final concentration of 0.5% DMSO. After 3 days (72 hours) at 37° C./5% CO2, the number of viable cells was determined using the Cell Titer-Blue Cell Viability Assay from Promega. Briefly, Cell Titer-Blue reagent were added to the cells and incubated for 1 hour. Fluorescense (560 nmexcitation/590 nmemission) was then read using a fluorescence micro-plate reader. Background from high concentration ERK-inhibited wells was subtracted. Representative date is in TABLE III (infra).

[2] = system: PMA-stimulated P90RSK(Ser380) phosphorylation in HepG2 cells; experiment: Cellular P90RSK(Ser380) Phosphorylation Assay; type: cell-based; settings: Homo sapiens, 1.5 h compound incubation, PMA stimulation, pP90RSK(Ser380) normalized to GAPDH, read-out: Cell Assay IC50
Method in brief: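 HepG2 cells were pretreated with compound (0.5% DMSO final) for 1.5 h, then stimulated with PMA 100 ng/mL for 30 min at 37° C. Fixed, permeabilized cells were immunostained for pP90RSK(Ser380) and GAPDH. The two-channel infrared fluorescence was read, and the phospho signal was normalized to GAPDH.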

Sequence of human ERK-2 (Mitogen Activated Kinase 1) (P28482 8-360): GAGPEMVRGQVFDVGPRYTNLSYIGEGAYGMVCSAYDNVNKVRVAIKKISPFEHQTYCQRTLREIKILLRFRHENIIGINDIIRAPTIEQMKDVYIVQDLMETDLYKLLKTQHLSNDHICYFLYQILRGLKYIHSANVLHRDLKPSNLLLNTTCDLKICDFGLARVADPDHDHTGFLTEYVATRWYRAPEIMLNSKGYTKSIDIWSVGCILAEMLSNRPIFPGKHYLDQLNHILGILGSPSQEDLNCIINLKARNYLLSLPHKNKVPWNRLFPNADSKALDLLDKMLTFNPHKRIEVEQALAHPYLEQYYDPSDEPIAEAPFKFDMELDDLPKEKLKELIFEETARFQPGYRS

Row | IC50 [1] [nM] | IC50 (HCT116 cells) [nM] | Structure (SMILES) | IC50 [2] [nM]
1 | 1.1 | 301 | O=C(N[C@@H](c1ccc(Cl)c(Cl)c1)c1cnco1)N1CCc2cnc(NC3CCOCC3)nc2C1 [Compound I-1, (S)—N-((3,4-dichlorophenyl)(oxazol-5-yl)methyl)-2-(tetrahydro-2H-pyran-4-ylamino)-5,6-dihydropyrido[3,4-d]pyrimidine-7(8H)-carboxamide] | 4.55
2 | 1.1 | 625 | CC(C)Nc1ncc2c(n1)CN(C(=O)N[C@@H](c1ccc(C(F)(F)F)c(F)c1)[C@H]1CCCN1)CC2 [Compound I-15, N—((S)-(3-fluoro-4-(trifluoromethyl)phenyl)((R)-pyrrolidin-2-yl)methyl)-2-(isopropylamino)-5,6-dihydropyrido[3,4-d]pyrimidine-7(8H)-carboxamide] | 37.3
3 | 1.1 | 2100 | CC(C)Nc1ncc2c(n1)CN(C(=O)N[C@H](CO)c1ccc(Cl)c(Cl)c1)CC2 [Compound I-16, (S)—N-(1-(3,4-dichlorophenyl)-2-hydroxyethyl)-2-(isopropylamino)-5,6-dihydropyrido[3,4-d]pyrimidine-7(8H)-carboxamide] | 52.4
4 | 1.5 | 628 | CC[C@@H](NC(=O)N1CCc2cnc(NC3CCOCC3)nc2C1)c1ccc(OC(F)F)cc1 [Compound I-27, (R)—N-(1-(4-(difluoromethoxy)phenyl)propyl)-2-(tetrahydro-2H-pyran-4-ylamino)-5,6-dihydropyrido[3,4-d]pyrimidine-7(8H)-carboxamide] | 26.9
5 | 1.6 | 1900 | COCC[C@@H](NC(=O)N1CCc2cnc(NC3CCOCC3)nc2C1)c1ccc(Cl)c(Cl)c1 [Compound I-28, (R)—N-(1-(3,4-dichlorophenyl)-3-methoxypropyl)-2-(tetrahydro-2H-pyran-4-ylamino)-5,6-dihydropyrido[3,4-d]pyrimidine-7(8H)-carboxamide] | 32.8
6 | 1.1 | 1900 | C[C@@H](CO)Nc1ncc2c(n1)CN(C(=O)N[C@H](CCO)c1ccc(Cl)c(Cl)c1)CC2 [Compound I-33, N—((R)-1-(3,4-dichlorophenyl)-3-hydroxypropyl)-2-((S)-1-hydroxypropan-2-ylamino)-5,6-dihydropyrido[3,4-d]pyrimidine-7(8H)-carboxamide] | 55
7 | 2.7 | 1400 | C[C@@H](NC(=O)N1CCc2cnc(N[C@H]3CC[C@H](O)C3)nc2C1)c1ccc(C(F)(F)F)c(F)c1 [Compound I-52, N—((R)-1-(3-fluoro-4-(trifluoromethyl)phenyl)ethyl)-2-((1S,3S)-3-hydroxycyclopentylamino)-5,6-dihydropyrido[3,4-d]pyrimidine-7(8H)-carboxamide] | 57
8 | 2.2 | 1600 | CC(C)Nc1ncc2c(n1)CN(C(=O)N[C@H](CCC#N)c1ccc(Cl)c(Cl)c1)CC2 [Compound I-104, (R)—N-(3-cyano-1-(3,4-dichlorophenyl)propyl)-2-(isopropylamino)-5,6-dihydropyrido[3,4-d]pyrimidine-7(8H)-carboxamide] | 58.6
9 | 23.2 | 1500 | O=C(NCc1cc2ccccc2[nH]1)N1CCc2cnc(NC3CCOCC3)nc2C1 [Compound I-114, N-((1H-indol-2-yl)methyl)-2-(tetrahydro-2H-pyran-4-ylamino)-5,6-dihydropyrido[3,4-d]pyrimidine-7(8H)-carboxamide] | 25.4
10 | 1.6 | 557 | CC(C)Nc1ncc2c(n1)CN(C(=O)N[C@@H]1CN(C)C[C@H]1c1ccc(C(F)(F)F)c(F)c1)CC2 [Compound I-120, N-((3S,4R)-4-(3-fluoro-4-(trifluoromethyl)phenyl)-1-methylpyrrolidin-3-yl)-2-(isopropylamino)-5,6-dihydropyrido[3,4-d]pyrimidine-7(8H)-carboxamide] | 37.8
11 | 2.3 | 47.5 | CN1C[C@@H](NC(=O)N2CCc3cnc(NC4CCOCC4)nc3C2)[C@H](c2ccc(Cl)c(F)c2)C1 [Compound I-124, N-((3S,4R)-4-(4-chloro-3-fluorophenyl)-1-methylpyrrolidin-3-yl)-2-(tetrahydro-2H-pyran-4-ylamino)-5,6-dihydropyrido[3,4-d]pyrimidine-7(8H)-carboxamide] | 5.95
12 | 3 | 4100 | C[C@@H](CO)Nc1cc2c(cn1)CCN(C(=O)N[C@H](C)c1ccc(Cl)c(Cl)c1)C2 [Compound I-149, N—((R)-1-(3,4-dichlorophenyl)ethyl)-7-((S)-1-hydroxypropan-2-ylamino)-3,4-dihydro-2,6-naphthyridine-2(1H)-carboxamide] | 75.7
13 | 2.3 |  | CCCC(NC(=O)N1CCc2cnc(N[C@@H](C)CO)nc2C1)c1ccc(OC)c(F)c1 (some centres unmarked) [II-415, 2-(2-Hydroxy-1-methyl-ethylamino)-5,8-dihydro-6H-pyrido[3,4-d]pyrimidine-7-carboxylic acid [1-(3-fluoro-4-methoxy-phenyl)-butyl]-amide] | 39.5

Source: patent US9133187B2, “Serine/threonine kinase inhibitors” (ARRAY BIOPHARMA INC., priority 2011, dated 2015)
